Assay [1] addresses T1, Transporter, Serotonin (5-Hydroxytryptamine) (SERT) (Homo sapiens, UniProt P31645).
T1 construct: purchased Eurofins Panlabs Discovery Services (Taiwan)
Kind of assay: off-target screen panel. In kind it is binding. The conditions noted are these: Human recombinant, [^3H]Paroxetine.

A further assay deals with T2, Adrenergic α1A (Rattus norvegicus, UniProt P43140).
T2 construct: purchased Eurofins Panlabs Discovery Services (Taiwan)
Kind of assay: off-target screen panel. The conditions noted are these: Rat submaxillary gland, [^3H]Prazosin. It counts as binding.

A further assay deals with T3, Muscarinic M1 (Homo sapiens, UniProt P11229).
T3 construct: purchased Eurofins Panlabs Discovery Services (Taiwan)
Kind of assay: off-target screen panel. It counts as binding. The conditions noted are these: Human recombinant, [^3H]N-Methylscopolamine.

The next assay concerns Potassium Channel [KATP]. Kind of assay: off-target screen panel. The conditions noted are these: Hamster pancreatic HIT-T15 beta cells, [^3H]Glyburide. It counts as binding.
Another assay has as its system Imidazoline I2, Central. The assay is described as follows: off-target screen panel. In kind it is binding. The conditions noted are these: Rat cerebral cortex, [^3H]Idazoxan.
In assay [2] the target is T4, Nicotinic Acetylcholine α1, Bungarotoxin (Homo sapiens, UniProt P02708+P07510+Q07001).
T4 construct: purchased Eurofins Panlabs Discovery Services (Taiwan)
The assay is described as follows: off-target screen panel. In kind it is binding. Conditions: read-out: Inhibition (%) at 1 μM.

The target of another assay is T5, Tachykinin NK1 (Homo sapiens, UniProt P25103).
T5 construct: purchased Eurofins Panlabs Discovery Services (Taiwan)
Kind of assay: off-target screen panel. Conditions: Human recombinant, [^3H]Substance P. It counts as binding.

For the next assay, the target named is T6, Neuropeptide Y Y1 (Homo sapiens, UniProt P25929).
T6 construct: purchased Eurofins Panlabs Discovery Services (Taiwan)
Kind of assay: off-target screen panel. In kind it is binding. The conditions noted are these: Human SK-N-MC cells, [^125I]Peptide YY.

Assay [3] has as its system Glutamate, NMDA, Phencyclidine. Kind of assay: off-target screen panel. It counts as binding. Conditions: Rat cerebral cortex, [^3H]TCP.
The target of another assay is T7, Opiate κ (OP2, KOP) (Homo sapiens, UniProt P41145).
T7 construct: purchased Eurofins Panlabs Discovery Services (Taiwan)
Kind of assay: off-target screen panel. It counts as binding. Conditions: Human recombinant, [^3H]Diprenorphine.

A further assay has as its target T8, Dopamine D3 (Homo sapiens, UniProt P35462).
T8 construct: purchased Eurofins Panlabs Discovery Services (Taiwan)
Kind of assay: off-target screen panel. In kind it is binding. Conditions: Human recombinant, [^3H]Spiperone.

Assay [4] has as its target T9, Epidermal Growth Factor (EGF) (Homo sapiens, UniProt P00533).
T9 construct: purchased Eurofins Panlabs Discovery Services (Taiwan)
Kind of assay: off-target screen panel. It counts as binding. Conditions: Human A431 cells, [^125I]EGF.

Assay [5] relates to PDE7. Kind of assay: PET imaging in rats with [^11C]MTP38. In kind it is in vivo, Wistar rats. The conditions noted are these: unlabeled MTP38 0.5 mg/kg intravenously 2 min before radioligand. On the procedure: Each rat was scanned multiple times with a shortest interval of 1 month. Rats were anesthetized with isoflurane (3% for induction and 2% for maintenance) throughout the experiment. The tail vein was cannulated for radioligand injection. Body temperature was maintained at around 37 °C using a heating pad. The head of the rat was fixed at the center of the field of view of an animal PET scanner (microPET Focus220, Siemens Medical Solutions, Malvern, USA). A 90-min list-mode data acquisition was started simultaneously with intravenous administration of [^11C]MTP38. The list-mode data were sorted into 3D sinograms, which were then Fourier-rebinned into 2D sinograms (frames: 10 s × 6, 30 s × 8, 1 min × 5, 2 min × 10, and 5 min × 12). The sinograms were reconstructed with a filtered back-projection algorithm using a Hanning filter with a cut-off at the Nyquist frequency (0.5 mm^−1).
Along with baseline scans, we conducted blockade PET experiments according to the following pretreatment protocols: (1) unlabeled MTP38 (0.5 mg/kg) was administered intravenously at 2 min before radioligand injection, and (2) MTP-X (100 mg/kg) was administered orally at 1 h before radioligand injection.
PET images were co-registered manually onto the magnetic resonance (MR) template image. Details of co-registration were described elsewhere. Regions of interest (ROIs) were placed on the striatum as a target region and on the cerebellum (gray matter) as a reference region according to the expression of PDE7B mRNA in the rat brain [6], and time-activity curves (TACs) were generated for each ROI. Radioactivity in the brain was normalized with injected radioactivity and body weight, and expressed as standardized uptake value (SUV). Then the SUV ratio between the striatum and cerebellum was obtained to estimate the radioligand binding in the target region in baseline and blockade experiments.

Assay [6] relates to GABAA, Flunitrazepam, Central. Kind of assay: off-target screen panel. Conditions: Rat brain (minus cerebellum), [^3H]Flunitrazepam. It counts as binding.
The subject of another assay is Glutamate, NMDA, Agonism. The assay is described as follows: off-target screen panel. In kind it is binding. Conditions: Rat cerebral cortex, [^3H]CGP-39653.
In the next assay the target is T10, Muscarinic M2 (Homo sapiens, UniProt P08172).
T10 construct: purchased Eurofins Panlabs Discovery Services (Taiwan)
The assay is described as follows: off-target screen panel. It counts as binding. Conditions: Human recombinant, [^3H]N-Methylscopolamine.

Another assay has as its system Transporter, GABA. Kind of assay: off-target screen panel. In kind it is binding. The conditions noted are these: Rat cerebral cortex, [^3H]GABA.
A further assay relates to Phorbol Ester. The assay is described as follows: off-target screen panel. In kind it is binding. The conditions noted are these: Mouse brain, [^3H]PDBu.
The subject of a further assay is Purinergic P2Y. Kind of assay: off-target screen panel. It counts as binding. The conditions noted are these: Rat brain, [^35S]ATP-αS.
Assay [7] has as its target T11, Serotonin (5-Hydroxytryptamine) 5-HT1A (Homo sapiens, UniProt P08908).
T11 construct: purchased Eurofins Panlabs Discovery Services (Taiwan)
The assay is described as follows: off-target screen panel. In kind it is binding. Conditions: Human recombinant, [^3H]8-OH-DPAT.

The next assay addresses T12, GABAB1A (Homo sapiens, UniProt Q9UBS5).
T12 construct: purchased Eurofins Panlabs Discovery Services (Taiwan)
Kind of assay: off-target screen panel. It counts as binding. Conditions: Human recombinant, [^3H]CGP-54626.

For assay [8], the system named is PDE7. Kind of assay: In vitro autoradiography of monkey brain sections with [^11C]MTP38. It counts as binding, rhesus monkeys. Conditions: [^11C]MTP38 2 nM, unlabeled MTP38 10 μM. The protocol: In vitro autoradiography was performed using 20-μm-thick fresh-frozen brain sections derived from Sprague-Dawley rats and rhesus monkeys. The sections were preincubated for 10 min in 50 mM Tris-HCl buffer (pH 7.4) at room temperature. These samples were then incubated for 60 min at room temperature in fresh buffer containing [^11C]MTP38 (2 nM) with or without unlabeled MTP38 (10 μM), MTP-X (4 μM), or MT-3014 (40 nM). The concentrations of MTP-X and MT-3014 were more than 400-fold of reported IC50 values of these agents. After the incubation, the brain sections were immersed twice in cold buffer for 3 min, dipped in cold distilled water for 10 s, and dried with warm airflow. Then the sections were contacted with imaging plates (BAS-MS2025, Fujifilm, Tokyo, Japan) for 60 min. The imaging plates were scanned with an imaging plate reader (BAS5000, Fujifilm, Tokyo, Japan), and the images were analyzed with the MultiGuage software (ver. 3.0, Fujifilm, Tokyo, Japan).

In another assay the target is T13, Adrenergic β1 (Homo sapiens, UniProt P08588).
T13 construct: purchased Eurofins Panlabs Discovery Services (Taiwan)
Kind of assay: off-target screen panel. It counts as binding. The conditions noted are these: Human recombinant, [^125I]Cyanopindolol.

Another assay has as its system Thyroid Hormone. Kind of assay: off-target screen panel. In kind it is binding. Conditions: Rat liver, [^125I]Triiodothyronine.

Structures are written as SMILES.

T4 sequence (Q07001 22-517): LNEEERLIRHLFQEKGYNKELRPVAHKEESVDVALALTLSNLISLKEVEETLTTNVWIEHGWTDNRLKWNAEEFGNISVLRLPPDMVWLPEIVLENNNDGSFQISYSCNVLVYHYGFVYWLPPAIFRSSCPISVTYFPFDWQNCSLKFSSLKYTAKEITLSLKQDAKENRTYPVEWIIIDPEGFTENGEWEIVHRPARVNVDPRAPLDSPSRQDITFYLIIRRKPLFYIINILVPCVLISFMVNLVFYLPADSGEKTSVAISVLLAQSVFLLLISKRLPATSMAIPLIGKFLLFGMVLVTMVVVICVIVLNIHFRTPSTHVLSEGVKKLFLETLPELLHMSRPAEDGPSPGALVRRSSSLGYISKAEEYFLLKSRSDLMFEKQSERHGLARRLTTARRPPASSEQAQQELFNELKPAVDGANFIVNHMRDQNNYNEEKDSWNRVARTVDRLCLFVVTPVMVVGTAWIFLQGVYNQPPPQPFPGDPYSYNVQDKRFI
T4 sequence (P02708 21-457): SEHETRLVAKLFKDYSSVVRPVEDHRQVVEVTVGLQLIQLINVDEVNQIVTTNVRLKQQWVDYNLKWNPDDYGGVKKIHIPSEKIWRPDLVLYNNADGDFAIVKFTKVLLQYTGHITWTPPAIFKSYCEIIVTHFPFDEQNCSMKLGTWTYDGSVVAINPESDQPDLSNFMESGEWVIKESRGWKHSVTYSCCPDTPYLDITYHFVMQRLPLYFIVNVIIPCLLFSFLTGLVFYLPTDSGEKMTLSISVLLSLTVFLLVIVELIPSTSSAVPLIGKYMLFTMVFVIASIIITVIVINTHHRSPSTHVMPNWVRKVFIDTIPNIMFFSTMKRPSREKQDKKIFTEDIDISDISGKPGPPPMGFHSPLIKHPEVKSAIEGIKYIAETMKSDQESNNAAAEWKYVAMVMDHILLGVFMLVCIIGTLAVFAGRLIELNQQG
T4 sequence (P07510 23-517): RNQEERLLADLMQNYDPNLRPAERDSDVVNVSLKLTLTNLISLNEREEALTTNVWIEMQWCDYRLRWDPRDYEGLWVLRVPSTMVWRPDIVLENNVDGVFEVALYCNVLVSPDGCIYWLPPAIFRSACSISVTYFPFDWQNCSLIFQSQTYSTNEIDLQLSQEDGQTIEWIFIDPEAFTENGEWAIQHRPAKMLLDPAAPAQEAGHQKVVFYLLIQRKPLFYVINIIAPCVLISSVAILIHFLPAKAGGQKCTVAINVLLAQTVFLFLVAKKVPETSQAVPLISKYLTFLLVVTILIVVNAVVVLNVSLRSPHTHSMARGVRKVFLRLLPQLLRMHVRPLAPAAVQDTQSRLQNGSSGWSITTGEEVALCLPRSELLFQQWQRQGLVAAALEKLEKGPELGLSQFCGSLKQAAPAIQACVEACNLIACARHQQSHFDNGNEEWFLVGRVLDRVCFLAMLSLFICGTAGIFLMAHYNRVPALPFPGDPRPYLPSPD
T4 sequence (P11230 24-501, further chain): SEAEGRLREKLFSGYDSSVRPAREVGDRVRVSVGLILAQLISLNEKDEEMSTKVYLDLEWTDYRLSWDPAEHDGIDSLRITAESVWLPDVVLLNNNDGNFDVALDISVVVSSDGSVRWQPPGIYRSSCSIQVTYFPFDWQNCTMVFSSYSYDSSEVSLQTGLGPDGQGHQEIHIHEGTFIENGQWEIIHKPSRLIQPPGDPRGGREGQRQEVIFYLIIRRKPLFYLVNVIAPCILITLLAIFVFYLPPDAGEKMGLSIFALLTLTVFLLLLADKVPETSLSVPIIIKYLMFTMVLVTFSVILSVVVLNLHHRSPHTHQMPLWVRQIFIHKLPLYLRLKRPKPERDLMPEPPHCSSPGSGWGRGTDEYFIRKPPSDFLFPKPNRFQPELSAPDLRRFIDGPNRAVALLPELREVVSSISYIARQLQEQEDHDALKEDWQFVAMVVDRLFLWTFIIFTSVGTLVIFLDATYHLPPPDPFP
T1 sequence (P31645 whole entry): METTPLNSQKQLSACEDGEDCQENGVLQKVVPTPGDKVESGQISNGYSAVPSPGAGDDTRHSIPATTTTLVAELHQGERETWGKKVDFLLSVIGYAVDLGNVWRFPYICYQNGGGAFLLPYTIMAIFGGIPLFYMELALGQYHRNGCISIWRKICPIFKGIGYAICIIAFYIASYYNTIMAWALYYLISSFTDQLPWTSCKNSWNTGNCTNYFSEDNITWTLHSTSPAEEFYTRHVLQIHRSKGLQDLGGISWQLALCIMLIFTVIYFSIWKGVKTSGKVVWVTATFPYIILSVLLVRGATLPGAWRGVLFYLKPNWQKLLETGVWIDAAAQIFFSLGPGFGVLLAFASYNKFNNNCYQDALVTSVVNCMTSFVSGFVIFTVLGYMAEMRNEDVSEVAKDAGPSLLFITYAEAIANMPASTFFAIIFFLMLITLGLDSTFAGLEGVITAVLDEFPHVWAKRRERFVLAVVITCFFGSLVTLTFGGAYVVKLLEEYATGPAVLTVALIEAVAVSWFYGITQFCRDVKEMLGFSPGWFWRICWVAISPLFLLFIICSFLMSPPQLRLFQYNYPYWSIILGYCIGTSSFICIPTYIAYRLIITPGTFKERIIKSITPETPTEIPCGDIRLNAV
T8 sequence (P35462 whole entry): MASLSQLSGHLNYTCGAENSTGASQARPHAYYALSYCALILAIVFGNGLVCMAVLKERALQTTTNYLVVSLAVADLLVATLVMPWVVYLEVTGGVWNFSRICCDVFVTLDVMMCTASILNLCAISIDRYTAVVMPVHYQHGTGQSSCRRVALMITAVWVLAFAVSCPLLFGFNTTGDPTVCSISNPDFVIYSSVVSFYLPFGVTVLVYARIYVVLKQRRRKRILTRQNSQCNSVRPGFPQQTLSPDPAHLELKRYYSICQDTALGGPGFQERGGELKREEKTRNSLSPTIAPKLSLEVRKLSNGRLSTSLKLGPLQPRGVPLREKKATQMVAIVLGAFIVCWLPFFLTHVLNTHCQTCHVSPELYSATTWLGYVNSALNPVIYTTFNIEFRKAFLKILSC
T5 sequence (P25103 whole entry): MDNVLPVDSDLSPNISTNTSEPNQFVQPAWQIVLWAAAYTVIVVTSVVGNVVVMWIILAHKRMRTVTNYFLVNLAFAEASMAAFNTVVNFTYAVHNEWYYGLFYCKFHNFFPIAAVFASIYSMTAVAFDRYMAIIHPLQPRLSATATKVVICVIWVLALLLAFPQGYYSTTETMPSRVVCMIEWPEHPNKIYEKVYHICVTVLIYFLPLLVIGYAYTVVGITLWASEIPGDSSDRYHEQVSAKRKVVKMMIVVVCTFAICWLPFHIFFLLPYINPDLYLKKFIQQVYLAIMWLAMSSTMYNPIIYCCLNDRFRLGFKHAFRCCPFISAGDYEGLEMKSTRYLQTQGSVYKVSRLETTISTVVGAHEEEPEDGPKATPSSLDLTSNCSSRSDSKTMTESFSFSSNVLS
T11 sequence (P08908 whole entry): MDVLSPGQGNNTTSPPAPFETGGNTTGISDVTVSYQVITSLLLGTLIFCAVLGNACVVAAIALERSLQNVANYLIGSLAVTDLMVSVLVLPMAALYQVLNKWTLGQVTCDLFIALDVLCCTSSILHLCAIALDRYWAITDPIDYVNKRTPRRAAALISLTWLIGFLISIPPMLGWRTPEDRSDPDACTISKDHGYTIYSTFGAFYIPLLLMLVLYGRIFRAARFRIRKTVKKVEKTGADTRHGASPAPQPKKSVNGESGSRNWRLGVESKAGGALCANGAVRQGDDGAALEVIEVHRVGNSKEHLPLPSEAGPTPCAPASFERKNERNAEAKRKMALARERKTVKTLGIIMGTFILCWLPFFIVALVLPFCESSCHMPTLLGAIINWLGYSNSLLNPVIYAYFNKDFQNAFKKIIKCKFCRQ
T9 sequence (P00533 25-1210): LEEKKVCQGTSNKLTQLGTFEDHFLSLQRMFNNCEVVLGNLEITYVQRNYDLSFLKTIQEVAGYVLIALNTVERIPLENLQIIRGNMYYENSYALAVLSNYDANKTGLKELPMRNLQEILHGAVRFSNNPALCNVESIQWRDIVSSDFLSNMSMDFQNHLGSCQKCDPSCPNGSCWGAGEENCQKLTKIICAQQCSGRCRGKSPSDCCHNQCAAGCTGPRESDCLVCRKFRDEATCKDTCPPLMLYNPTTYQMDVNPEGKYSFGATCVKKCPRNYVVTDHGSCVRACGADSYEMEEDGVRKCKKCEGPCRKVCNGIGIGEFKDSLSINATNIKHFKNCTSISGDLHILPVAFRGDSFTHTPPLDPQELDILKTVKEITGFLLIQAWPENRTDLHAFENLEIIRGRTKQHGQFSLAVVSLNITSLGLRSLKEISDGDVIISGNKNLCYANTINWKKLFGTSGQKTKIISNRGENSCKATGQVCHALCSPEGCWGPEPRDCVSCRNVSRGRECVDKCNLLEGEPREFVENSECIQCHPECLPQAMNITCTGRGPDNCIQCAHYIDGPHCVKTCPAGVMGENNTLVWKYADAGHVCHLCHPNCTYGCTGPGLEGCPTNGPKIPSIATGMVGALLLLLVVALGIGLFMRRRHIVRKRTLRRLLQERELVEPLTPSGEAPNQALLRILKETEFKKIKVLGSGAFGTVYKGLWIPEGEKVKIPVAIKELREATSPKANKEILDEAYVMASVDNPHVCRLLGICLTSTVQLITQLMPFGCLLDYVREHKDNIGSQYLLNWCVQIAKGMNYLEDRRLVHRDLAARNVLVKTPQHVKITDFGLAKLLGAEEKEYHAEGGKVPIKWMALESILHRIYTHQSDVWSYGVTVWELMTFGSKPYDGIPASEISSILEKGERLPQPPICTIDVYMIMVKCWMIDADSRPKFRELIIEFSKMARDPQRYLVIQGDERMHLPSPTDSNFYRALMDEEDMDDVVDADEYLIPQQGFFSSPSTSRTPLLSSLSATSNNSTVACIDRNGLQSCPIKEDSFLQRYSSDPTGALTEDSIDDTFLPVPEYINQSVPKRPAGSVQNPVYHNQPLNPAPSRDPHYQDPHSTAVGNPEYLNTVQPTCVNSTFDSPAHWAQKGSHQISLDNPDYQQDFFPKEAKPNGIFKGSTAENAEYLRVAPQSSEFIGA

As for `C[C@@H]1CC[C@H](C)N(c2nnc3c(N)ncc(C#N)n23)C1` (relative stereo) [MTP38, 8-amino-3-(2S*,5R*-dimethyl-1-piperidyl)-[1,2,4]triazolo[4,3-a]pyrazine-5-carbonitrile], the inhibition – broadly, the drop in the measured response relative to a control, in per cent – at 1 µM in assay [1] was -14%; against Adrenergic α1A, 8%; at Muscarinic M1 it was -20%; in [2], 15%; on Tachykinin NK1 it was 9%; against Neuropeptide Y Y1, -13%. Also, the inhibition at 1 µM was 9% at Opiate κ (OP2, KOP); 0% on Dopamine D3; 1% in assay [4]; -9% on Muscarinic M2; -5% in assay [7]; -10% on GABAB1A. Further, the inhibition at 1 µM at Adrenergic β1 was -2%. Besides, the “Inhibition (%) at 1 μM” value in the assay on Potassium Channel [KATP] is given as 5%; in the assay on Imidazoline I2, Central it was -8%; in assay [3] it was -5%; in [6] it was -2%; in the assay with Glutamate, NMDA, Agonism, -3%; in the assay with Transporter, GABA, -2%. In addition, the results for the “Inhibition (%) at 1 μM” value in the assay with Phorbol Ester, with Purinergic P2Y and with Thyroid Hormone were -7%, -20% and 7%, respectively. For the same compound, in the assay with PDE7 [5], the “striatum-to-cerebellum ratio of SUV of [^11C]MTP38 after pretreatment” value is given as “around 1.1”. For the same compound, in the assay with PDE7 [8], the “effect of blocker on striatal radioactivity of [^11C]MTP38” value is “reduced the striatal radioactivity”.

Values taken from PMC8426238, “Synthesis and preclinical evaluation of [^11C]MTP38 as a novel PET ligand for phosphodiesterase 7 in the brain” (European Journal of Nuclear Medicine and Molecular Imaging, 2021).
